For 21 compounds, IC50 results are on record in US20240199587A1, “HETEROCYCLIC COMPOUNDS” (Hoffmann-La Roche Inc., priority 2021, published 2024).

The target in this assay is T1, MAGL (Homo sapiens, UniProt Q99685).
T1 sequence (Q99685 1-303): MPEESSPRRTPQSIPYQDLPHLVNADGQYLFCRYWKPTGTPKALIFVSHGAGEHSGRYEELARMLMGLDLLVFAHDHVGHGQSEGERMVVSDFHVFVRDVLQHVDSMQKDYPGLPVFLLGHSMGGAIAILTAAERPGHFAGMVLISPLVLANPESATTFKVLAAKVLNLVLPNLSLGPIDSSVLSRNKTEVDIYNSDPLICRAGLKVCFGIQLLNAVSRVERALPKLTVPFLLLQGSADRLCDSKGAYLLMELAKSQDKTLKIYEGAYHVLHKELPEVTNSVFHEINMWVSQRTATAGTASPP
As to the kind of experiment: 2-AG assay (MAGL inhibitory activity, hydrolysis of 2-arachidonoylglycerol to arachidonic acid followed by mass spectrometry). The following applies: 8 μM 2-arachidonoylglycerol, 15 min pre-incubation, 30 min incubation at RT, RapidFire MS readout. Format: biochemical. A digest of the protocol: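 Arachidonic acid released from 8 μM 2-arachidonoylglycerol was quantified by online SPE triple-quadrupole MS (negative ESI, 303.1→259.1), normalised to d8-arachidonic acid internal standard. Reaction ran 30 min at RT after 15 min RT compound pre-incubation with […] MAGL in TRIS/EDTA/Tween-20 buffer, 2.5% DMSO.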
For the compound `O=C(N1CC(Oc2cc(C(F)(F)F)ncn2)C1)N1CC2(CC(n3cnc(C4CC4)n3)C2)C1` [Example 285, [6-(3-cyclopropyl-1,2,4-triazol-1-yl)-2-azaspiro[3.3]heptan-2-yl]-[3-[6-(trifluoromethyl)pyrimidin-4-yl]oxyazetidin-1-yl]methanone], the IC50 stood at 54.3 nM.
The value for `O=C(N1CC2(CC(n3cnc(C4CC4)n3)C2)C1)N1CC2(C1)CN(S(=O)(=O)c1cccc(Cl)n1)C2` [Example 286, [2-[(6-chloro-2-pyridyl)sulfonyl]-2,6-diazaspiro[3.3]heptan-6-yl]-[6-(3-cyclopropyl-1,2,4-triazol-1-yl)-2-azaspiro[3.3]heptan-2-yl]methanone] was 58.6 nM; that for `N#Cc1cccc(S(=O)(=O)N2CC3(CN(C(=O)N4CC5(CC(n6cnc(C7CC7)n6)C5)C4)C3)C2)c1` [Example 287, 3-[[6-[6-(3-cyclopropyl-1,2,4-triazol-1-yl)-2-azaspiro[3.3]heptane-2-carbonyl]-2,6-diazaspiro[3.3]heptan-2-yl]sulfonyl]benzonitrile] was 59.4 nM; that for `CC1(S(=O)(=O)N2CC3(CN(C(=O)N4CC5(CC(n6cnc(C7CC7)n6)C5)C4)C3)C2)CC1` [Example 288, [6-(3-cyclopropyl-1,2,4-triazol-1-yl)-2-azaspiro[3.3]heptan-2-yl]-[2-(1-methylcyclopropyl)sulfonyl-2,6-diazaspiro[3.3]heptan-6-yl]methanone] was 62 nM.
The result for `O=C(N1CC(c2nnc(-c3ccc(F)cc3F)[nH]2)C1)N1CC2(CC(n3cnc(C4CC4)n3)C2)C1` [Example 289, [6-(3-cyclopropyl-1,2,4-triazol-1-yl)-2-azaspiro[3.3]heptan-2-yl]-[3-[5-(2,4-difluorophenyl)-4H-1,2,4-triazol-3-yl]azetidin-1-yl]methanone] reads 62.1 nM; that for `COc1cc(F)ccc1S(=O)(=O)N1CC2(CN(C(=O)N3CC4(CC(n5cnc(C6CC6)n5)C4)C3)C2)C1` [Example 290, [6-(3-cyclopropyl-1,2,4-triazol-1-yl)-2-azaspiro[3.3]heptan-2-yl]-[2-(4-fluoro-2-methoxy-phenyl)sulfonyl-2,6-diazaspiro[3.3]heptan-6-yl]methanone], 70.7 nM.
The value for `O=C(c1ccc(F)cc1Cl)N1CC2(C1)CN(C(=O)N1CC3(CC(n4cnc(C5CC5)n4)C3)C1)C2` [Example 292, (2-chloro-4-fluoro-phenyl)-[2-[6-(3-cyclopropyl-1,2,4-triazol-1-yl)-2-azaspiro[3.3]heptane-2-carbonyl]-2,6-diazaspiro[3.3]heptan-6-yl]methanone] was 77.1 nM; that for `NS(=O)(=O)c1ccc(C2CN(C(=O)N3CC4(CC(n5cnc(C6CC6)n5)C4)C3)C2)cc1` [Example 293, 4-[1-[6-(3-cyclopropyl-1,2,4-triazol-1-yl)-2-azaspiro[3.3]heptane-2-carbonyl]azetidin-3-yl]benzenesulfonamide] was 78 nM.
Regarding `NC(=O)c1ccc(F)c(S(=O)(=O)N2CC3(CN(C(=O)N4CC5(CC(n6cnc(C7CC7)n6)C5)C4)C3)C2)c1` [Example 294], the half-maximal inhibitory concentration (IC50) stood at 81.6 nM.
The result for `CC(=O)Nc1ccc(S(=O)(=O)N2CC3(CN(C(=O)N4CC5(CC(n6cnc(C7CC7)n6)C5)C4)C3)C2)cc1` [Example 295, N-[4-[[6-[6-(3-cyclopropyl-1,2,4-triazol-1-yl)-2-azaspiro[3.3]heptane-2-carbonyl]-2,6-diazaspiro[3.3]heptan-2-yl]sulfonyl]phenyl]acetamide] reads 89 nM; that for `O=C(N1CC2(CC(n3cnc(C4CC4)n3)C2)C1)N1CC2(C1)CN(S(=O)(=O)CC1CC1)C2` [Example 296, [2-(cyclopropylmethylsulfonyl)-2,6-diazaspiro[3.3]heptan-6-yl]-[6-(3-cyclopropyl-1,2,4-triazol-1-yl)-2-azaspiro[3.3]heptan-2-yl]methanone], 91.5 nM; that for `O=C(N1CC2(CC(n3cnc(C4CC4)n3)C2)C1)N1CC2(C1)CN(S(=O)(=O)c1cccnc1C(F)(F)F)C2` [Example 297, [6-(3-cyclopropyl-1,2,4-triazol-1-yl)-2-azaspiro[3.3]heptan-2-yl]-[2-[[2-(trifluoromethyl)-3-pyridyl]sulfonyl]-2,6-diazaspiro[3.3]heptan-6-yl]methanone], 94.4 nM.
In turn, `NC(=O)c1ccc(S(=O)(=O)N2CC3(CN(C(=O)N4CC5(CC(n6cnc(C7CC7)n6)C5)C4)C3)C2)cc1` [Example 298, 4-[[6-[6-(3-cyclopropyl-1,2,4-triazol-1-yl)-2-azaspiro[3.3]heptane-2-carbonyl]-2,6-diazaspiro[3.3]heptan-2-yl]sulfonyl]benzamide] showed an IC50 of 95.5 nM.
On to `CC(C)(Cc1cccc(OC2CN(C(=O)N3CC4(CC(n5cnc(C6CC6)n5)C4)C3)C2)c1)C(=O)O` [Example 299, 3-[3-[1-[6-(3-cyclopropyl-1,2,4-triazol-1-yl)-2-azaspiro[3.3]heptane-2-carbonyl]azetidin-3-yl]oxyphenyl]-2,2-dimethyl-propanoic acid], for which the midpoint of inhibition, the IC50, lay at 95.7 nM.
The result for `Cc1oncc1S(=O)(=O)N1CC2(CN(C(=O)N3CC4(CC(n5cnc(C6CC6)n5)C4)C3)C2)C1` [Example 300, [6-(3-cyclopropyl-1,2,4-triazol-1-yl)-2-azaspiro[3.3]heptan-2-yl]-[2-(5-methylisoxazol-4-yl)sulfonyl-2,6-diazaspiro[3.3]heptan-6-yl]methanone] reads 95.7 nM.
In the case of `O=C(N1CC(CNS(=O)(=O)c2ccc(F)cc2C(F)(F)F)C1)N1CC2(CC(n3cnc(C4CC4)n3)C2)C1` [Example 302], the IC50 amounted to 101 nM.
Compound `O=C(N1CC(Oc2cncc(C(F)(F)F)n2)C1)N1CC2(CC(n3cnc(C4CC4)n3)C2)C1` [Example 303, [6-(3-cyclopropyl-1,2,4-triazol-1-yl)-2-azaspiro[3.3]heptan-2-yl]-[3-[6-(trifluoromethyl)pyrazin-2-yl]oxyazetidin-1-yl]methanone] gave a half-inhibitory concentration (IC50) of 101 nM.
The result for `O=C(N1CC2(CC(n3cnc(C4CC4)n3)C2)C1)N1CC2(C1)CN(S(=O)(=O)C(F)(F)F)C2` [Example 304, [6-(3-cyclopropyl-1,2,4-triazol-1-yl)-2-azaspiro[3.3]heptan-2-yl]-[2-(trifluoromethylsulfonyl)-2,6-diazaspiro[3.3]heptan-6-yl]methanone] reads 108 nM; that for `NC(=O)C(c1ccc(F)cc1)C1CCN(C(=O)N2CC3(CC(n4cnc(C5CC5)n4)C3)C2)CC1` (stereo not drawn) [Example 305, 2-[1-[6-(3-cyclopropyl-1,2,4-triazol-1-yl)-2-azaspiro[3.3]heptane-2-carbonyl]-4-piperidyl]-2-(4-fluorophenyl)acetamide], 117 nM; that for `NC(=O)[C@H](c1ccc(F)cc1)N1CCN(C(=O)N2CC3(CC(n4cnc(C5CC5)n4)C3)C2)CC1` [Example 306, (2S)-2-[4-[6-(3-cyclopropyl-1,2,4-triazol-1-yl)-2-azaspiro[3.3]heptane-2-carbonyl]piperazin-1-yl]-2-(4-fluorophenyl)acetamide], 129 nM.
`O=C(N1CC(OCc2ccc(S(F)(F)(F)(F)F)cc2)C1)N1CC2(CC(n3cnc(C(F)(F)F)c3)C2)C1` [Example 307, [3-[[4-(pentafluoro-λ^6-sulfanyl)phenyl]methoxy]azetidin-1-yl]-[6-[4-(trifluoromethyl)imidazol-1-yl]-2-azaspiro[3.3]heptan-2-yl]methanone] had a half-inhibitory concentration (IC50) of 136 nM.
